One data set deals with honeybees. As to the kind of experiment: Honeybee repulsion experiment at feeding stations. The format is in vivo. The conditions noted are these: 2% by weight with 50% sucrose solution in feeder. As to the method:
FIG. 5 describes the feeding station arrangement (A and B) for the honeybee repulsion experiments described herein. As set forth in […], panel (A) sets forth the bee cage positions on the left portion of panel (A) with the randomized feeding station positions on the right portion of panel (A). Panel (B) sets forth an alignment of the randomized feeding station positions with a distance of two meters between feeding stations. A total of eight feeding stations were evaluated at a ten meter distance in front of the respective bee hives. The feeding stations were placed two meters apart from one another.
Honeybees were trained to deep feeders (eight positions), each containing a 50% sucrose solution for one day. After the honeybees were trained to each feeder, the 50% sucrose feeder at randomized positions 1-8 was replaced with a shallow feeder containing a combination of repelling compounds and a 50% sucrose solution according to Table 9. In accordance with FIGS. 5 and 6, 2% by weight of Camphor oil (T4), Ajowan oil (T5), Camphor powder (T6), Rosemary oil (T7), and 2-Decanone (T8) in combination with a 50% sucrose treatment were added to feeders on day two.
Table 9 describes active agents evaluated for bee repulsion and their randomized feeding station positions. As described in […], T1 (control), T2 (control), T3 (control), T4 (Camphor oil), T5 (Ajowan oil), T6 (Camphor powder), T7 (Rosemary oil), and T8 (2-Decanone).
FIG. 5 evaluates the number of bees visiting a respective feed station over a time interval. FIG. 6 sets forth the mean number of honeybees visiting feeding station over a period of four hours.

The nature of data set [1]: Stability test of Poncho 600 with Eugenol, clothianidin content by HPLC. The conditions noted are these: in Poncho combined with Eugenol; up to 54° C. for seven days. The format is physicochemical. As to the method:
Table 10 describes a stability test with a combination of Eugenol and Poncho evaluated at room temperature, 40° C., and 54° C. at zero time, 3 days, and 7 days as confirmed by high performance liquid chromatography (HPLC).

The nature of data set [2]: Stability test of Poncho 600 with α-terpineol, clothianidin content by HPLC. Type of data set: physicochemical. As to conditions: in Poncho combined with α-terpineol; up to 54° C. for eight days. As to the method: Table 11 describes a stability test with a combination of α-terpineol and Poncho 600 evaluated at room temperature, 40° C., and 54° C. at zero time, 2 days, and 8 days as confirmed by HPLC.

Regarding `CCCCCCCCC(C)=O` [Compound 2-Decanone, 2-decanone (methyl-n-octyl ketone)], the “Repellency to honeybees at 24 hours” value with honeybees is recorded as “exhibited repellency”; with honeybees (listed as 2-decanone), “still repellent”. Besides, the “Repellency to honeybees over the 4 hour assessment period” value in the data set with honeybees (full 4 hour assessment period) is “highly repellent”.
In the case of `CN/C(=N\[N+](=O)[O-])NCc1cnc(Cl)s1` [clothianidin], the “Chemical stability of clothianidin content” value in data set [1] and in data set [2] was “exhibited chemical stability” in each case.

The values above are taken from patent publication US20140274682A1, “COMPOSITIONS AND METHODS FOR REDUCING DUST AND REPELLING, CONTROLLING, OR DIRECTING AN INSECT” (priority 2013, published 2014).
